In ChEMBL document CHEMBL1765084, “Pyrimidine-2,4,6-trione derivatives and their inhibition of mutant SOD1-dependent protein aggregation. Toward a treatment for amyotrophic lateral sclerosis” (J Med Chem, 2011):

System: PC-12
Assay: Cytoprotection against SOD1 G93A mutant induced cytotoxicity in rat PC12 cells assessed as reduction of protein aggregates by fluorescent assay
Type: functional, cell-based

| SMILES | EC50 [µM] |
| --- | --- |
| CCCN1C(=O)CC(=O)N(CCC)C1=O | 7.68 |
| CC1C(=O)N(CCc2ccccc2)C(=O)N(CCc2ccccc2)C1=O | > 32 |
| O=C1CC(=O)N(CCc2ccccc2)C(=O)N1CCCc1ccccc1 | 1.88 |
| O=C1CC(=O)N(Cc2ccccc2)C(=O)N1Cc1ccccc1 | 4.58 |
| O=C1CC(=O)N(CCc2ccc(F)cc2)C(=O)N1CCc1ccc(F)cc1 | 3.45 |
| O=C1CC(=O)N(CCCc2ccccc2)C(=O)N1CCCc1ccccc1 | 1.32 |
| COc1ccc(CCN2C(=O)CC(=O)N(CCc3ccc(OC)c(OC)c3)C2=O)cc1OC | 11.6 |
| O=C1CC(=O)N(CCN2CCOCC2)C(=O)N1CCc1ccc(F)cc1 | > 32 |
| O=C1CCC(=O)N(CCc2ccccc2)C(=O)N1CCc1ccccc1 | > 32 |
| O=C1CC(=O)N(CCc2cccs2)C(=O)N1CCc1ccccc1 | 3.39 |
| O=C1C(=CC2CCCCC2)C(=O)N(CCc2ccccc2)C(=O)N1CCc1ccccc1 | > 32 |
| COc1ccc(CCN2C(=O)CC(=O)N(CCc3ccc(OC)cc3)C2=O)cc1 | 3.36 |
| O=C1CC(=O)N(CCc2ccc(F)cc2)C(=O)N1CCCCc1ccccc1 | 3.55 |
| O=C1C(=Cc2c(Cl)cccc2Cl)C(=O)N(CCc2ccccc2)C(=O)N1CCc1ccccc1 | 3.1 |
| O=C1CC(=O)N(CCc2cccc(Cl)c2)C(=O)N1CCc1cccc(Cl)c1 | 2.97 |
| O=C1CC(=O)N(CCc2ccc(Cl)cc2)C(=O)N1CCc1ccc(Cl)cc1 | 3.26 |
| O=C1C(=O)N(CCc2ccccc2)C(=O)N1CCc1ccccc1 | > 32 |
| COc1ccc(CCN2C(=O)CC(=O)N(CCc3ccccc3)C2=O)cc1 | 2.94 |
| O=C1CC(=O)N(C2CCCCC2)C(=O)N1CCc1ccccc1 | 1.67 |
| O=C1CC(=O)N(CC(c2ccccc2)c2ccccc2)C(=O)N1CCCCc1ccccc1 | 3.61 |
| CC(C)(C)CCN1C(=O)CC(=O)N(CCC(C)(C)C)C1=O | 2.03 |
| O=C1CC(=O)N(CCc2ccc(Cl)cc2Cl)C(=O)N1CCc1ccc(Cl)cc1Cl | 1.87 |
| O=C1NC(=O)N(C2CCCCC2)C1=O | > 32 |
| COc1cc(=O)n(CCc2ccccc2)c(=O)n1CCc1ccccc1 | > 32 |
| O=C1C(=Cc2ccc(OCc3ccccc3)cc2)C(=O)N(CCc2ccccc2)C(=O)N1CCc1ccccc1 | 2.84 |
